The values below come from patent US20240226074A1, “CELL-OF-ORIGIN TARGETED DRUG REPURPOSING FOR TRIPLE-NEGATIVE AND INFLAMMATORY BREAST CARCINOMA WITH HDAC AND HSP90 INHIBITORS COMBINED WITH NICLOSAMIDE” (priority 2022, published 2024).

One series concerns IBC02. The experiment in a line: WST cell proliferation assay, IBC02 cells. The class given is cell-based.
For another series, the system named is IBC03. The series can be described thus: WST cell proliferation assay, IBC03 cells. The format is cell-based.
A further series deals with KPL4. The experiment in a line: WST cell proliferation assay, KPL4 cells. The class given is cell-based.
For a further series, the system named is SUM149. The experiment in a line: WST cell proliferation assay, SUM149 cells. The class given is cell-based.
The next series has as its system SUM190. The experiment in a line: WST cell proliferation assay, SUM190 cells. The class given is cell-based.
For series [1] the following is noted: cited from earlier work; for peak serum concentrations achieved in different clinical trials: human, in vivo; for Cmax: peak serum concentration, clinical trials, read-out: Phase I-II Cmax.
For series [2] the following is noted: at clinically recommended doses; cited from earlier work.
The subject of another series is MFM223. The experiment in a line: WST cell proliferation assay, MFM223 cells. The settings on record: 100 nM, 7 days.
A further series has as its system HCC1913. The experiment in a line: WST cell proliferation assay, HCC1913 cells. The conditions noted are these: 100 nM, 7 days.
Another series addresses HDAC1 (Homo sapiens, UniProt Q13547). The conditions noted are these: previously shown [37]; cited from earlier work.
The mark [3] stands for this setting: single drug 1000 nM, Belinostat panel.
The mark [4] stands for this setting: single drug 500 nM, Belinostat panel.
The mark [5] stands for this setting: single drug 100 nM, Belinostat panel.
Where [6] appears, read: single drug 100 nM, Entinostat panel (upper part of Table 6).
Setting [7] is: single drug 200 nM, Belinostat panel.
Where [8] appears, read: single drug 200 nM, Entinostat panel.
The mark [9] stands for this setting: single drug 150 nM, Entinostat panel.

HDAC1, sequence (Q13547 whole entry): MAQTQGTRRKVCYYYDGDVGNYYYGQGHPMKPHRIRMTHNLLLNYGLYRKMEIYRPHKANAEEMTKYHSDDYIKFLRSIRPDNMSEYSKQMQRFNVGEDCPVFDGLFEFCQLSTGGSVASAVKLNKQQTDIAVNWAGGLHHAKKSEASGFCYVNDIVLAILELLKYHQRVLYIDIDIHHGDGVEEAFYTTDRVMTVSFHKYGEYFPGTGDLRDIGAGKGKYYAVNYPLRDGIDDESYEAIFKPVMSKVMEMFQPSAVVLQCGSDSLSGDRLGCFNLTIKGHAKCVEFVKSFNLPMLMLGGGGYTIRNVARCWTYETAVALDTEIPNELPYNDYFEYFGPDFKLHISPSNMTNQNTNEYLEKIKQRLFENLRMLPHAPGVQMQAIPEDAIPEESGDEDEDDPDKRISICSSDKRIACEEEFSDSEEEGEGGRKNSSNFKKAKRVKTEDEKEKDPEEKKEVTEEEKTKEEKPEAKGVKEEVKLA
Protocol for HCC1913: (§1) The inhibition of cell proliferation by E, N, T and ENT is measured by WST assay.
Protocol for MFM223: as §1

One may read the Cmax as the highest concentration seen after dosing. In the case of `O=C(/C=C/c1cccc(S(=O)(=O)Nc2ccccc2)c1)NO` [Belinostat], the “Survival of inflammatory breast cancer cells (percent viability vs DMSO)” value (“Survival … (percent viability vs DMSO)” below) with IBC02 (single drug 500 nM, Belinostat panel (lower part of Table 6)) is reported as 14; in the series on IBC02 (setting [3]) it was 0; with IBC03 (setting [4]), 91; in the series with IBC03 (setting [3]), 45; with KPL4 (setting [4]) it was 91; in the series with KPL4 (setting [3]) it was 23. Also, the “Survival … (percent viability vs DMSO)” value in the series on SUM149 (setting [4]) is 71; in the series with SUM149 (setting [3]), 21; in the series on SUM190 (setting [4]), 95; in the series on SUM190 (setting [3]) it was 107. For the same compound, in [1], the “peak serum concentrations achieved in different clinical trials” value is 200 µM. Further, in series [1], the Cmax is 200 µM.
As to `O=C(Nc1ccc([N+](=O)[O-])cc1Cl)c1cc(Cl)ccc1O` [Niclosamide], the “Survival … (percent viability vs DMSO)” value in the series on IBC02 (setting [5]) is given as 17; in the series with IBC02 (setting [6]), 20; in the series on IBC03 (setting [5]) it was 35; in the series with IBC03 (setting [6]), 46; in the series with KPL4 (setting [5]) it was 104; with KPL4 (setting [6]), 91. Moreover, the “Survival … (percent viability vs DMSO)” value was found to be 74 with SUM149 (setting [5]), 113 in the series with SUM149 (setting [6]), 133 in the series with SUM190 (setting [5]) and 135 in the series with SUM190 (setting [6]). Also, in [1], the “peak serum concentrations achieved in different clinical trials” value is 2 µM. Also, the Cmax in [1] is 2 µM. In addition, the side effects entry in series [2] was “itching, drowsiness, dizziness, and skin rash”. The “sensitivity of cell line (FIG. 2)” value in the series with MFM223 and in the series with HCC1913 was “exceptional sensitivity” throughout.
Consider `O=C(CCCCCCC(=O)Nc1ccccc1)NO` [Vorinostat], for which the maximum concentration (Cmax) in series [1] was 40 µM.
With `CCc1cc(C(N)=O)ccc1-n1nc(C(C)C)c2c(-n3cnc(-c4cnn(C)c4)c3)ccnc21` [Pimitespib], the “Survival … (percent viability vs DMSO)” value worked out at 114 with IBC02 (setting [5]); 107 in the series with IBC02 (setting [6]); 105 with IBC02 (setting [7]); 114 in the series on IBC02 (setting [8]); 89 with IBC03 (setting [5]); 89 with IBC03 (setting [6]). For the same compound, the “Survival … (percent viability vs DMSO)” value in the series on IBC03 (setting [7]) is listed as 81; in the series with IBC03 (setting [8]), 81; in the series on KPL4 (setting [5]), 102; in the series on KPL4 (setting [6]), 89; in the series with KPL4 (setting [7]), 136; in the series on KPL4 (setting [8]), 118. Also, the “Survival … (percent viability vs DMSO)” value with SUM149 (setting [5]) turned out to be 111; in the series on SUM149 (setting [6]), 115; in the series with SUM149 (setting [7]), 158; with SUM149 (setting [8]), 172; in the series with SUM190 (setting [5]) it was 112; with SUM190 (setting [6]) it was 114. Further, the “Survival … (percent viability vs DMSO)” value in the series on SUM190 (setting [7]) worked out at 100; in the series on SUM190 (setting [8]) it was 102. For the same compound, the “peak serum concentrations achieved in different clinical trials” value in series [1] was 7 µM. For the same compound, the Cmax in series [1] was 7 µM. The side effects entry in [2] is “diarrhea, decreased appetite, malaise, renal impairment, and anemia”.
For the compound `Nc1ccccc1NC(=O)c1ccc(CNC(=O)OCc2cccnc2)cc1` [Entinostat], the “Survival … (percent viability vs DMSO)” value was 21 with IBC02 (setting [6]); 12 in the series on IBC02 (setting [9]); 61 in the series with IBC03 (setting [6]); 35 with IBC03 (setting [9]); 45 with KPL4 (setting [6]); 20 in the series with KPL4 (setting [9]). Also, the “Survival … (percent viability vs DMSO)” value in the series on SUM149 (setting [6]) was determined as 99; with SUM149 (setting [9]) it was 102; with SUM190 (setting [6]), 159; in the series on SUM190 (setting [9]), 223. In addition, the “inhibition of HDAC1” value on HDAC1 is “inhibits”.
